Here are results for 3 molecules from ChEMBL document CHEMBL1128852, “Butyrophenone analogues: Synthesis of 2-methyl-3-ethyl-5-aminoethyl-4,5,6,7-tetrahydroindol-4-ones, and their affinities for d1, d2 and 5-ht2a receptors” (Bioorg Med Chem Lett, 1995).

Molecules are shown by their SMILES.

One assay has as its target D(1A) dopamine receptor (Rattus norvegicus, UniProt P18901). The assay is described as follows: Inhibition constant for in vitro inhibition of [3H]-SCH- 23390 binding to striatal membranes Dopamine receptor D1. On the set-up: species or system Striatum, Membrane.
The species named for assay [1] is Rattus norvegicus. The assay is described as follows: (§1) Competitive antagonism against serotonin-induced contractions in rat aorta ring stripped of endothelium. In kind it is functional. The settings on record: read-out: pA2 (converted).
In assay [2] the target is 5-hydroxytryptamine receptor 2A (Rattus norvegicus, UniProt P14842). The assay is described as follows: Inhibition constant for in vitro inhibition of [3H]ketanserin binding to rat frontal cortex membranes 5-hydroxytryptamine 2A receptor. In kind it is cell membranes, Membrane.
The target of another assay is D(2) dopamine receptor (Rattus norvegicus, UniProt P61169). The assay is described as follows: Inhibition constant for in vitro inhibition of [3H]spiperone binding to striatal membranes Dopamine receptor D2.
For assay [3], the species on record is Rattus norvegicus. Described as §1. The following applies: read-out: pA2 (converted).

D(1A) dopamine receptor, sequence (P18901 whole entry): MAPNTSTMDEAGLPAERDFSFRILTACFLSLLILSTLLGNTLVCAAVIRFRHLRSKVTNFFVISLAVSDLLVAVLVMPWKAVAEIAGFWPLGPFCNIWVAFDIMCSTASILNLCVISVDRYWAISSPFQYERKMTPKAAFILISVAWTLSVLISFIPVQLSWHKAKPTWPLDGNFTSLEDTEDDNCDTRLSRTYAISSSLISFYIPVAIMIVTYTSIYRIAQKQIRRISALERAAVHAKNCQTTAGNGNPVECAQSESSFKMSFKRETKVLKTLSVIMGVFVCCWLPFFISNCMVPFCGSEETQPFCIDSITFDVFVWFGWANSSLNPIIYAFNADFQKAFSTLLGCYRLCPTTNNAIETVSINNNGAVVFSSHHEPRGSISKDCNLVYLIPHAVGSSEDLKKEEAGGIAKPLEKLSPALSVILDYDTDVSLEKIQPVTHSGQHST
D(2) dopamine receptor, sequence (P61169 whole entry): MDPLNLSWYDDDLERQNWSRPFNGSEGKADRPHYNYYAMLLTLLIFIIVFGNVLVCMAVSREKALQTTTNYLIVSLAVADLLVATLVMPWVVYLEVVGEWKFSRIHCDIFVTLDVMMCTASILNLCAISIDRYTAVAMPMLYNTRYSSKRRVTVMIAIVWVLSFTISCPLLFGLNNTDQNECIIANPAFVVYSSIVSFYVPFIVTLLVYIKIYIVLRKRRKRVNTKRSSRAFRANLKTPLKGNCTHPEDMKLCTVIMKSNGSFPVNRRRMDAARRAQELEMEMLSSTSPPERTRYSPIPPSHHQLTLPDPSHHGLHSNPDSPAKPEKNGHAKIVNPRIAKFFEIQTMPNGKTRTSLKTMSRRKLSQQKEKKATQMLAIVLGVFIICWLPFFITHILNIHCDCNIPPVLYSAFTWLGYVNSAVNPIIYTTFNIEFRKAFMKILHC
5-hydroxytryptamine receptor 2A, sequence (P14842 whole entry): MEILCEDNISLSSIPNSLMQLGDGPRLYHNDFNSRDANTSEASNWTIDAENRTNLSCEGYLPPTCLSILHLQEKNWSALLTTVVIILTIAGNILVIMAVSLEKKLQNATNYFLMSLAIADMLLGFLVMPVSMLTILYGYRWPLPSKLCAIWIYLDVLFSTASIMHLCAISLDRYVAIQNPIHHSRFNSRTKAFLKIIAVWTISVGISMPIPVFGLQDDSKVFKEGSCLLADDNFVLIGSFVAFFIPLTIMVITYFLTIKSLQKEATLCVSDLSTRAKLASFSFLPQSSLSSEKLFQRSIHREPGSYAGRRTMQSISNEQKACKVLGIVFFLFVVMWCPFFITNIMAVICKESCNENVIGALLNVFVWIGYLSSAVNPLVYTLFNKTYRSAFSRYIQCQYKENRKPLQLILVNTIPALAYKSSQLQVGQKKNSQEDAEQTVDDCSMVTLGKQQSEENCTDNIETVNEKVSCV

As usually defined, the Ki is the dissociation constant of the complex between target and ligand, obtained from inhibition or displacement. A lower Ki goes with tighter binding. With `CCc1c(C)[nH]c2c1C(=O)C(CCN1CCN(c3ccccc3OC)CC1)CC2` (centres undefined), the Ki on D(1A) dopamine receptor is 1.17 µM; in assay [2] it was 0.0912 µM; on D(2) dopamine receptor, 0.0282 µM. Moreover, the Kb in the assay listed under Rattus norvegicus [1] was 0.0316 µM.
For `CCc1c(C)[nH]c2c1C(=O)C(CCN1CCOCC1)CC2` (centres undefined), the Ki is 2.14 µM at D(1A) dopamine receptor, 0.912 µM in assay [2] and 0.589 µM at D(2) dopamine receptor. In addition, in the assay filed under Rattus norvegicus [3], the Kb was 0.105 µM.
On to `CCc1c(C)[nH]c2c1C(=O)C(CN1CCOCC1)CC2` (centres undefined) [MOLINDONE], for which, on D(1A) dopamine receptor, affinity was put at a Ki of 1.58 µM.
